{"source": "patent US20080253972A1", "about": "“Aqueous/alcoholic deodorant composition comprising a water-soluble zinc salt and salicylic acid” (priority 2006, published 2008)", "test_system": "Corynebacterium xerosis", "test": "Quantitative determination of bactericidal activity with regard to microorganisms involved in axillary odors", "assay_type": "cell-based", "settings": "24 hours contact, carrier gel pH 7, Log reduction classes", "source_text": "The test described here makes possible the quantitative determination of the bactericidal activity of an active principle (i.e.: zinc salicylate/salicylic acid or triclosan) conveyed in an appropriate carrier which is neutral with regard to the bacteria tested. The bacteria studied were microorganisms under optimum growth conditions, namely microorganisms of the Corynebacterium xerosis type (Institut Pasteur Collection No. 5216) cultured on a gradient of tryptocasein soybean agar.\nThe day before the test, 32 g of tryptocasein soybean broth was placed in a sample tube and incubated at 35° C. The day of the test, 4 g of the test composition was added and the mixture was homogenized using a Vortex render.\nA growth control without product was also prepared under the same conditions in order to confirm that the microorganisms are under favorable growth conditions throughout the duration of the test. […]\nThe colonies on the dishes comprising more than 20 and less than 200 colonies were counted. […]\nThe following two carrier gels A and B were prepared (amounts expressed as percentages by weight): […]\nThe bactericidal activity of each of formulations 9 and 10 (see below) with regard to the Corynebacterium xerosis strain was measured and compared to a formulation devoid of active principle."}
{"compound": "Oc1cc(Cl)ccc1Oc1ccc(Cl)cc1Cl", "note": "[Triclosan, 2,4,4′-trichloro-2′-hydroxydiphenyl ether]", "values": [{"measurement": "Effectiveness at 24 hours with respect to the gel devoid of active principle", "value": "Excellent"}]}
